Assay results: patent US20140213538A1, “LYSOPHOSPHATIDIC ACID RECEPTOR ANTAGONISTS” (InterMune, Inc., priority 2013, published 2014)

How the values were obtained:
LPA/S1P GPCR of interest = target: T1, LPA/S1P GPCR of interest (Homo sapiens, UniProt Q92633); assay: Beta-Arrestin based assay (PathHunter); format: cell-based
T1 construct: host or cells: CHO
How it was run: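 EA Parental CHO cells (DiscoverX) were transfected with FuGENE (Roche) using CMV promoter-driven DNA constructs encoding the LPA/S1P GPCR of interest fused to a ProLink tag. Beta-arrestin recruitment in agonist mode was assessed 24-48 hrs later with PathHunter kits. Tests ran in quadruplicate in white 384 well plates, and end point luminescence was fit to a 4 parameter logistic function.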

LPA1 = LPA1 (Homo sapiens, UniProt Q92633); assay: LPA1 Migration Assay (Oris); format: cell-based; design: host or cells: primary fibroblasts (lung, dermal), HFL-1, 3T3 and CHO cells expressing LPA1R; conditions: read-out: Cell Migration EC50
LPA1, sequence (Q92633 whole entry): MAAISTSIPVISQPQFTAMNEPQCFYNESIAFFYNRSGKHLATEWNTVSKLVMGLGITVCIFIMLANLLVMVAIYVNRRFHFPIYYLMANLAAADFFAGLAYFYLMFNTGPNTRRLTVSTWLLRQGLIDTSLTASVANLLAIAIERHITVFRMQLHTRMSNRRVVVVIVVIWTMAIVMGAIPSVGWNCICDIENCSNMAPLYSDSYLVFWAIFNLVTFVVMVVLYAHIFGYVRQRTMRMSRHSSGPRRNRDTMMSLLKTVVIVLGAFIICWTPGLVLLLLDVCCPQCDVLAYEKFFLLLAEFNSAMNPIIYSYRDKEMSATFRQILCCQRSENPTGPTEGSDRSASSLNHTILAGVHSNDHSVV
Excerpt: LPA1 Migration Assay Migration of primary fibroblasts (including lung, dermal), HFL-1, 3T3 and CHO cells expressing LPA1R were monitored using the Oris™ assay (Platypus Technologies, Madison, Wis.). These cells were dye (Cell Tracker Green™) loaded and serum starved for 12-24 hrs. In response to chemoattractants such as LPA and serum, the cells migrated inward in to the exclusion (detection) zone. After fixing, fluorescent cells in the detection zone were counted using a high content reader. The ability of LPA1 antagonists to inhibit cell migration is quantified by plotting cell number vs. compound concentration and curve fitting the resulting dose-response curve to a 4 parameter logistic function.

T1 sequence (Q92633 whole entry): as above

| EC50 (LPA/S1P GPCR of interest) | EC50 (LPA1) | Structure (SMILES) |
| --- | --- | --- |
| < 50 nM | 50 to 500 nM | C[C@@H](OC(=O)Nc1c(-c2cc3sc(-c4ccc(Oc5ccccc5C(=O)O)cc4)cc3s2)cnn1C)c1ccccc1 [IT406] |
| < 50 nM | 50 to 500 nM | Cc1noc(-c2ccc(-c3ccc(Oc4cc(F)ccc4C(=O)O)cc3)cc2)c1NC(=O)O[C@H](C)c1ccccc1 [IT467] |
| 50 to 500 nM | 50 to 500 nM | C[C@@H](OC(=O)Nc1c(-c2ccc(-c3ccc(C(C(=O)O)C4COC4)cc3)cc2)cnn1C)c1ccccc1 (some centres unmarked) [IT150] |
| > 500 nM | > 500 nM | CCOc1cc(CC(=O)O)ccc1-c1cc2sc(-c3nnn(C)c3NC(=O)O[C@H](C)c3ccccc3)cc2s1 [IT191] |
| 50 to 500 nM | > 500 nM | C[C@@H](OC(=O)Nc1c(-c2cc3sc(-c4ccc(CC(=O)O)c(Cl)c4)cc3s2)nnn1C)c1ccccc1 [IT166] |
| < 50 nM | 50 to 500 nM | Cc1noc(-c2ccc(-c3ccc4c(c3)CC(C)(C(=O)O)O4)cc2)c1NC(=O)O[C@H](C)c1ccccc1 (some centres unmarked) [IT498] |
| > 500 nM | > 500 nM | C[C@@H](OC(=O)Nc1c(-c2cc3sc(-c4ccc(CC(=O)O)cc4N)cc3s2)cnn1C)c1ccccc1 [IT180] |
| > 500 nM | > 500 nM | COc1cc(CC(=O)O)ccc1-c1cc2sc(-c3cnn(C)c3NC(=O)O[C@H](C)c3ccccc3)cc2s1 [IT162] |
| < 50 nM | 50 to 500 nM | C[C@@H](OC(=O)Nc1c(-c2cc(F)c(-c3ccc(C4(C(=O)O)CC4)cc3)cc2F)oc2ncccc12)c1ccccc1 [IT096] |
| 50 to 500 nM | > 500 nM | Cc1nnn(-c2ccc(-c3cc(F)c(OC4(C(=O)O)CC4)c(F)c3)cc2)c1NC(=O)O[C@H](C)c1ccccc1 [IT313] |
| > 500 nM | > 500 nM | Cc1nsc(-c2cc3sc(-c4ccc(CC(=O)O)nc4)cc3s2)c1NC(=O)O[C@H](C)c1ccccc1 [IT185] |
| < 50 nM | 50 to 500 nM | C[C@@H](OC(=O)Nc1c(-c2ccc(-c3ccc(Oc4cc(F)ccc4C(=O)O)cc3)cc2)cnn1C)c1ccccc1 [IT469] |
| > 500 nM | > 500 nM | COc1cc(CC(=O)O)ccc1-c1cc2sc(-c3nnn(C)c3NC(=O)O[C@H](C)c3ccccc3)cc2s1 [IT183] |
| < 50 nM | 50 to 500 nM | Cc1noc(-c2ccc(-c3ccc(Oc4scnc4C(=O)O)cc3)cc2)c1NC(=O)O[C@H](C)c1ccccc1 [IT420] |
| 50 to 500 nM | > 500 nM | Cc1nsc(-c2cc3sc(-c4ccc(CC(=O)O)cc4F)cc3s2)c1NC(=O)O[C@H](C)c1ccccc1 [IT135] |
| 50 to 500 nM | 50 to 500 nM | Cc1noc(C#Cc2ccc(NC3(C(=O)O)CC3)cc2)c1NC(=O)O[C@H](C)c1ccccc1 [IT006] |
| 50 to 500 nM | 50 to 500 nM | COC(=O)c1ccccc1Oc1ccc(-c2ccc(-c3nnn(C)c3NC(=O)O[C@H](C)c3ccccc3)cc2)cc1 [IT478] |
| < 50 nM | 50 to 500 nM | Cc1nsc(-c2ccc(-c3ccc(OC4(C(=O)O)CC4)cc3)cc2)c1NC(=O)O[C@H](C)c1ccccc1 [IT513] |
| > 500 nM | > 500 nM | Cc1noc(-c2ccc(C#Cc3ccccc3C(=O)O)cc2)c1NC(=O)O[C@H](C)c1ccccc1 [IT154] |
| < 50 nM | 50 to 500 nM | Cc1onc(-c2cc3sc(C#CC4(C(=O)O)CC4)cc3s2)c1NC(=O)O[C@H](C)c1ccccc1 [IT418] |
| 50 to 500 nM | > 500 nM | C[C@@H](OC(=O)Nc1c(-c2cc3sc(-c4cnc(C5(C(=O)O)CC5)s4)cc3s2)nnn1C)c1ccccc1 [IT189] |
| < 50 nM | 50 to 500 nM | Cc1nsc(-c2ccc(-c3cc(F)c(Oc4cccnc4C(=O)O)c(F)c3)cc2)c1NC(=O)O[C@H](C)c1ccccc1 [IT464] |
| 50 to 500 nM | > 500 nM | Cc1cc(CC(=O)O)ccc1-c1cc2sc(-c3cnn(C)c3NC(=O)O[C@H](C)c3ccccc3)cc2s1 [IT169] |
| 50 to 500 nM | > 500 nM | CC(=O)NS(=O)(=O)c1ccc(-c2ccc(-c3onc(C)c3NC(=O)O[C@H](C)c3ccccc3)cc2)cc1 [IT131] |
| < 50 nM | < 50 nM | C[C@@H](OC(=O)Nc1c(-c2ccc(-c3ccc(Oc4cccc(F)c4C(=O)O)cc3)cc2)nnn1C)c1ccccc1 [IT455] |
| 50 to 500 nM | 50 to 500 nM | Cc1noc(-c2ccc(-c3ccc(S(C)(=O)=O)nc3)cc2)c1NC(=O)O[C@H](C)c1ccccc1 [IT139] |
| < 50 nM | < 50 nM | C[C@@H](OC(=O)Nc1c(-c2ccc(-c3ccc(Oc4ccc(F)cc4C(=O)O)cc3)cc2)nnn1C)c1ccccc1 [IT460] |
| > 500 nM | > 500 nM | Cc1noc(-c2ccc(-c3ccc(NC(=O)OC(C)(C)C)cc3)cc2)c1NC(=O)O[C@H](C)c1ccccc1 [IT194] |

| EC50 (LPA/S1P GPCR of interest) | EC50 (LPA1) | Structure (SMILES) |
| --- | --- | --- |
| > 500 nM | > 500 nM | C[C@@H](OC(=O)Nc1c(C#Cc2cc3sc(C4(C(=O)O)CC4)cc3s2)cnn1C)c1c(F)c(F)c(F)c(F)c1F [IT118] |
| > 500 nM | > 500 nM | C[C@@H](OC(=O)Nc1c(-c2cc3sc(-c4ccc(CC(=O)O)cc4Cl)cc3s2)nnn1C)c1ccccc1 [IT168] |
| 50 to 500 nM | > 500 nM | C[C@@H](OC(=O)Nc1c(-c2ccc(-c3ccc(CC(=O)O)s3)cc2)nnn1C)c1ccccc1 [IT178] |
| < 50 nM | 50 to 500 nM | Cc1noc(-c2ccc(-c3ccc(Oc4cnccc4C(=O)O)cc3)cc2)c1NC(=O)O[C@H](C)c1ccccc1 [IT257] |
| < 50 nM | < 50 nM | C[C@@H](OC(=O)Nc1c(-c2ccc(-c3cc(F)c(Oc4ccsc4C(=O)O)c(F)c3)cc2)cnn1C)c1ccccc1 [IT465] |
| < 50 nM | 50 to 500 nM | Cc1noc(-c2ccc(-c3ccc(Oc4cccc(F)c4C(=O)O)cc3)cc2)c1NC(=O)O[C@H](C)c1ccccc1 [IT454] |
| 50 to 500 nM | > 500 nM | C[C@@H](OC(=O)Nc1c(-c2cc3sc(-c4ccc(CC(=O)O)cc4F)cc3s2)nnn1C)c1ccccc1 [IT159] |
| < 50 nM | > 500 nM | C[C@@H](OC(=O)Nc1c(-c2ccc(-c3cc(F)c(OC4(C(=O)O)CC4)c(F)c3)cc2)cnn1C)c1ccccc1 [IT314] |
| 50 to 500 nM | 50 to 500 nM | Cc1noc(-c2ccc(-c3ccc(Oc4nnccc4C(=O)O)cc3)cc2)c1NC(=O)O[C@H](C)c1ccccc1 [IT231] |
| > 500 nM | > 500 nM | Cc1nsc(-c2cc3sc(-c4cnc(C5(C(=O)O)CC5)s4)cc3s2)c1NC(=O)O[C@H](C)c1ccccc1 [IT184] |
| 50 to 500 nM | > 500 nM | C[C@@H](OC(=O)Nc1c(-c2cc3sc(-c4ccc5[nH]cc(CC(=O)O)c5c4)cc3s2)cnn1C)c1ccccc1 [IT188] |
| < 50 nM | 50 to 500 nM | Cc1noc(-c2ccc(-c3cc(F)c(OC(C)(C)C(=O)O)c(F)c3)cc2)c1NC(=O)O[C@H](C)c1ccccc1 [IT500] |
| < 50 nM | < 50 nM | Cc1noc(-c2ccc(-c3cc(F)c(Oc4ccsc4C(=O)O)c(F)c3)cc2)c1NC(=O)O[C@H](C)c1ccccc1 [IT463] |
| 50 to 500 nM | 50 to 500 nM | Cc1noc(-c2ccc(-c3ccc(Oc4ncsc4C(=O)O)cc3)cc2)c1NC(=O)O[C@H](C)c1ccccc1 [IT417] |
| < 50 nM | 50 to 500 nM | C[C@@H](OC(=O)Nc1c(-c2cc3sc(-c4ccc(C5(C(=O)O)CC5)cc4F)cc3s2)nnn1C)c1ccccc1 [IT246] |
| 50 to 500 nM | > 500 nM | C[C@@H](OC(=O)Nc1c(-c2cc3sc(-c4ccc(CC(=O)O)cc4F)cc3s2)cnn1C)c1ccccc1 [IT134] |
| > 500 nM | > 500 nM | C[C@@H](OC(=O)Nc1c(-c2cc3sc(-c4cc(Cl)c(CC(=O)O)cc4F)cc3s2)nnn1C)c1ccccc1 [IT186] |
| > 500 nM | > 500 nM | Cc1nsc(-c2ccc(-c3nnc(CC(=O)O)o3)cc2)c1NC(=O)O[C@H](C)c1ccccc1 [IT142] |
| 50 to 500 nM | > 500 nM | Cc1noc(-c2ccc(-c3ccc(NS(C)(=O)=O)cc3)cc2)c1NC(=O)O[C@H](C)c1ccccc1 [IT195] |
| 50 to 500 nM | > 500 nM | CCC(C)OC(=O)Nc1c(C)noc1-c1ccc(-c2ccc(Oc3ccccc3C(=O)O)cc2)cc1 (single isomer, unassigned) [IT493] |
| > 500 nM | > 500 nM | Cc1nsc(-c2cc3sc(-c4ccc(CC(=O)O)c(Cl)c4)cc3s2)c1NC(=O)O[C@H](C)c1ccccc1 [IT167] |
| 50 to 500 nM | > 500 nM | Cc1nsc(-c2cc3sc(-c4ccc(CC(=O)O)cc4)cc3s2)c1NC(=O)O[C@H](C)c1ccccc1 [IT133] |
| > 500 nM | > 500 nM | Cc1noc(-c2ccc(-c3ccc(S(=O)(=O)C4CC4)cc3)cc2)c1NC(=O)O[C@H](C)c1ccccc1 [IT173] |
| 50 to 500 nM | 50 to 500 nM | Cc1noc(-c2cc3sc(-c4cc(F)c(OC5(C(=O)O)CC5)c(F)c4)cc3s2)c1NC(=O)O[C@H](C)c1ccccc1 [IT488] |
| < 50 nM | 50 to 500 nM | C[C@@H](OC(=O)Nc1c(-c2cc3sc(-c4cc(F)c(C5(C(=O)O)CC5)cc4F)cc3s2)nnn1C)c1ccccc1 [IT348] |
| > 500 nM | > 500 nM | C[C@@H](OC(=O)Nc1c(-c2cc3sc(-c4cc(Cl)c(CC(=O)O)cc4F)cc3s2)cnn1C)c1ccccc1 [IT187] |
| < 50 nM | 50 to 500 nM | C[C@@H](OC(=O)Nc1c(-c2cc3sc(-c4ccc(C5(C(=O)O)CC5)cc4Cl)cc3s2)cnn1C)c1ccccc1 [IT389] |
